According to the supplement of paper PMC10883282:

How the values were obtained:
Assay in all cases: standardised AUC of viability dose-response curve (72 h) (fraction (0-1)); higher = less growth inhibition (more resistant)
[1] = test system: A204
In short: (§1)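 After 72 h with 2.5 µl of compound (compound-plate series 10 mM to 0.0002 mM), triplicate wells of sarcoma cell lines in 384-well plates were read with ATPLite, with viability scaled 1 (full) to 0 (none) and fitted with a four-parameter log-logistic model. The values give the standardised area under the dose-response curve in log-dose space from a modified drexplorer computeAUC. A value of 1 means no response and 0 means full response.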

[2] = test system: G401
In short: as §1

[3] = test system: HS729
In short: as §1

[4] = test system: HT1080
In short: as §1

[5] = test system: KHOS-240S
In short: as §1

[6] = test system: KHOS-NP
In short: as §1

[7] = test system: MES-SA
In short: as §1

[8] = test system: RD-ES
In short: as §1

[9] = test system: RD
In short: as §1

[10] = test system: SK-ES-1
In short: as §1

[11] = test system: SK-LMS-1
In short: as §1

[12] = test system: SW1353
In short: as §1

[13] = test system: SW684
In short: as §1

[14] = test system: SW872
In short: as §1

[15] = test system: SW982
In short: as §1

[16] = test system: SYO-1
In short: as §1

[17] = test system: VA-ES-BJ
In short: as §1

| Compound | standardised AUC [1] | standardised AUC [2] | standardised AUC [3] | standardised AUC [4] | standardised AUC [5] | standardised AUC [6] | standardised AUC [7] | standardised AUC [8] | standardised AUC [9] | standardised AUC [10] | standardised AUC [11] | standardised AUC [12] | standardised AUC [13] | standardised AUC [14] | standardised AUC [15] | standardised AUC [16] | standardised AUC [17] |
| --- | --- | --- | --- | --- | --- | --- | --- | --- | --- | --- | --- | --- | --- | --- | --- | --- | --- |
| CC#CC(=O)N1CCC[C@H]1c1nc(-c2ccc(C(=O)Nc3ccccn3)cc2)c2c(N)nccn12 [ACALABRUTINIB] | 0.985 | 0.992 | 0.995 | 0.998 | 0.986 | 1 | 0.996 | 0.998 | 0.976 | 0.993 | 0.996 | 0.963 | 0.996 | 0.992 | 0.98 | 0.989 | 1 |
| N#CC1(c2ccc(NC(=O)c3cccnc3NCc3ccncc3)cc2)CCCC1 [APATINIB] | 0.821 | 0.956 | 0.942 | 0.991 | 0.966 | 0.968 | 0.972 | 0.98 | 0.996 | 0.988 | 0.982 | 0.965 | 0.987 | 0.98 | 0.998 | 0.893 | 1 |
| O=C(Nc1ccc(OC(F)(F)Cl)cc1)c1cnc(N2CC[C@@H](O)C2)c(-c2cc[nH]n2)c1 [ASCIMINIB] | 0.947 | 0.989 | 0.985 | 0.969 | 0.983 | 0.962 | 0.975 | 0.965 | 0.994 | 0.979 | 0.957 | 1 | 0.987 | 0.997 | 0.987 | 0.94 | 0.996 |
| CNC(=O)c1ccccc1Sc1ccc2c(/C=C/c3ccccn3)n[nH]c2c1 [AXITINIB] | 0.545 | 0.857 | 0.826 | 0.963 | 0.849 | 0.93 | 0.857 | 0.926 | 0.89 | 0.863 | 0.975 | 0.928 | 0.954 | 0.859 | 0.887 | 0.669 | 0.901 |
| Cc1cc2c(F)c(Oc3ncnn4cc(OC[C@@H](C)O)c(C)c34)ccc2[nH]1 [BRIVANIB] | 0.973 | 0.994 | 0.989 | 0.996 | 0.996 | 0.995 | 0.985 | 0.996 | 0.991 | 0.987 | 0.985 | 0.999 | 1 | 1 | 0.995 | 0.955 | 1 |
| CO[C@H]1C[C@@H]2CC[C@@H](C)[C@@](O)(O2)C(=O)C(=O)N2CCCC[C@H]2C(=O)O[C@H]([C@H](C)C[C@@H]2CC[C@@H](OCCO)[C@H](OC)C2)CC(=O)[C@H](C)/C=C(\C)[C@@H](O)[C@@H](OC)C(=O)[C@H](C)C[C@H](C)/C=C/C=C/C=C/1C [CERTICAN] | 0.633 | 0.849 | 0.926 | 0.962 | 0.819 | 0.971 | 0.548 | 0.76 | 0.765 | 0.684 | 0.645 | 0.835 | 0.841 | 0.688 | 0.728 | 0.885 | 0.604 |
| CC1(COc2ccc3c(c2)ncn3-c2ccc3cccc(N4CCC(N)CC4)c3n2)COC1 [CRENOLANIB] | 0.653 | 0.956 | 0.994 | 0.93 | 0.887 | 0.886 | 0.903 | 0.898 | 0.942 | 0.823 | 0.931 | 0.917 | 0.969 | 0.93 | 0.853 | 0.804 | 0.891 |
| CC(C)(C)c1nc(-c2cccc(NS(=O)(=O)c3c(F)cccc3F)c2F)c(-c2ccnc(N)n2)s1 [DABRAFENIB] | 0.881 | 0.921 | 0.853 | 0.924 | 0.96 | 0.863 | 0.866 | 0.854 | 0.941 | 0.812 | 0.779 | 0.925 | 0.97 | 0.586 | 0.723 | 0.946 | 0.876 |
| CCc1cnn2c(NCc3ccc[n+]([O-])c3)cc(N3CCCC[C@H]3CCO)nc12 [DINACICLIB] | 0.497 | 0.439 | 0.64 | 0.525 | 0.51 | 0.509 | 0.398 | 0.419 | 0.484 | 0.378 | 0.598 | 0.551 | 0.798 | 0.6 | 0.546 | 0.519 | 0.498 |
| C[C@H](Nc1ncnc2nc[nH]c12)c1cc2cccc(Cl)c2c(=O)n1-c1ccccc1 [DUVELISIB] | 0.864 | 0.912 | 0.902 | 0.996 | 0.946 | 0.985 | 0.901 | 0.915 | 0.941 | 0.917 | 0.834 | 0.879 | 0.666 | 0.869 | 0.915 | 0.921 | 0.884 |
| CC1(C)CC=C(c2nc(C3CC(C)(C)OC(C)(C)C3)ccc2NC(=O)c2nc(C#N)c[nH]2)CC1 [EDICOTINIB] | 0.985 | 0.987 | 0.931 | 0.984 | 0.987 | 0.994 | 0.971 | 0.994 | 0.984 | 0.976 | 0.99 | 1 | 1 | 1 | 1 | 1 | 0.991 |
| CC(C)(O)CNc1nc(Nc2ccnc(C(F)(F)F)c2)nc(-c2cccc(C(F)(F)F)n2)n1 [ENASIDENIB] | 0.972 | 0.992 | 0.997 | 0.999 | 0.995 | 0.981 | 0.99 | 0.992 | 0.984 | 0.945 | 0.998 | 0.99 | 0.973 | 0.998 | 1 | 0.958 | 0.991 |
| COC(=O)N[C@@H](C)CNc1nccc(-c2cn(C(C)C)nc2-c2cc(Cl)cc(NS(C)(=O)=O)c2F)n1 [ENCORAFENIB] | 0.922 | 0.922 | 0.925 | 0.933 | 0.956 | 0.903 | 0.9 | 0.903 | 0.896 | 0.843 | 0.887 | 0.941 | 0.961 | 0.665 | 0.818 | 0.977 | 0.923 |
| CN1CCN(c2ccc(C(=O)Nc3n[nH]c4ccc(Cc5cc(F)cc(F)c5)cc34)c(NC3CCOCC3)c2)CC1 [ENTRECTINIB] | 0.944 | 0.904 | 0.915 | 0.957 | 0.901 | 0.973 | 0.933 | 0.88 | 0.888 | 0.87 | 0.928 | 0.924 | 0.927 | 0.893 | 0.885 | 0.868 | 0.957 |
| Cn1cc(C2=C(c3cn(C4CCN(Cc5ccccn5)CC4)c4ccccc34)C(=O)NC2=O)c2ccccc21 [ENZASTAURIN] | 0.979 | 1 | 0.995 | 1 | 0.978 | 0.992 | 0.988 | 1 | 0.995 | 0.986 | 0.953 | 0.943 | 0.961 | 0.973 | 0.961 | 0.965 | 1 |
| O=S(=O)(c1cccc2cnccc12)N1CCCNCC1 [FASUDIL] | 0.981 | 1 | 0.982 | 0.997 | 0.982 | 0.994 | 0.993 | 1 | 1 | 1 | 0.986 | 0.981 | 0.978 | 0.992 | 0.991 | 0.997 | 0.996 |
| O=C(Nc1nc2cccc(-c3ccc(CN4CCS(=O)(=O)CC4)cc3)n2n1)C1CC1 [FILGOTINIB] | 0.985 | 0.993 | 0.906 | 0.991 | 0.991 | 0.991 | 0.987 | 0.998 | 0.985 | 0.981 | 0.987 | 0.949 | 0.994 | 0.979 | 0.993 | 0.892 | 0.96 |
| COc1cc(Nc2ncc(F)c(Nc3ccc4c(n3)N(COP(=O)(O)O)C(=O)C(C)(C)O4)n2)cc(OC)c1OC [FOSTAMATINIB] | 0.774 | 0.842 | 0.871 | 0.968 | 0.798 | 0.911 | 0.885 | 0.857 | 0.906 | 0.757 | 0.854 | 0.819 | 0.886 | 0.803 | 0.755 | 0.779 | 0.845 |
| Cc1cccc(-c2nn3c(c2-c2ccnc4ccc(C(N)=O)cc24)CCC3)n1 [GALUNISERTIB] | 0.976 | 0.993 | 0.91 | 0.982 | 0.955 | 0.956 | 0.969 | 0.972 | 0.998 | 0.968 | 0.974 | 0.976 | 0.992 | 0.962 | 0.992 | 0.853 | 1 |
| CN1CC[C@@H](NC(=O)Nc2ccc(C#N)cc2)C[C@@H]1c1nc2ccccc2[nH]1 [GLASDEGIB] | 0.982 | 0.976 | 0.985 | 0.988 | 0.991 | 0.992 | 0.976 | 0.959 | 0.987 | 0.953 | 0.982 | 0.988 | 0.99 | 0.988 | 0.991 | 0.976 | 0.984 |
| CC(C)NC[C@@H](C(=O)N1CCN(c2ncnc3c2[C@H](C)C[C@H]3O)CC1)c1ccc(Cl)cc1 [IPATASERTIB] | 0.843 | 0.836 | 0.817 | 0.969 | 0.921 | 0.954 | 0.781 | 0.848 | 0.898 | 0.851 | 0.885 | 0.891 | 0.848 | 0.805 | 0.916 | 0.791 | 0.769 |
| COC(=O)[C@@]1(O)C[C@H]2O[C@]1(C)n1c3ccccc3c3c4c(c5c6ccccc6n2c5c31)C(=O)NC4 [K-252A] | 0.617 | 0.745 | 0.756 | 0.818 | 0.717 | 0.776 | 0.631 | 0.647 | 0.81 | 0.543 | 0.666 | 0.766 | 0.774 | 0.68 | 0.628 | 0.668 | 0.7 |
| CCC(=O)N1CC[C@H](Nc2ncnc3c2CN(c2cnc(OC)c(C(F)(F)F)c2)CC3)C1 [LENIOLISIB] | 0.929 | 0.929 | 0.935 | 0.961 | 0.962 | 0.97 | 0.955 | 0.95 | 0.988 | 0.96 | 0.927 | 0.934 | 0.83 | 0.947 | 0.955 | 0.923 | 0.955 |
| C[C@]12O[C@H](C[C@]1(O)CO)n1c3ccccc3c3c4c(c5c6ccccc6n2c5c31)CNC4=O [LESTAURTINIB] | 0.646 | 0.821 | 0.762 | 0.802 | 0.72 | 0.762 | 0.64 | 0.62 | 0.821 | 0.526 | 0.721 | 0.764 | 0.805 | 0.655 | 0.614 | 0.656 | 0.667 |
